Experimental data as given in PMC7150468, “A2AR Antagonism with DZD2269 Augments Antitumor Efficacy of Irradiation in Murine Model” (Journal of Cancer, 2020).

Molecular target: T1, adenosine 2A receptor (A2AR) (Mus musculus, UniProt Q60613)
T1 construct: gene Adora2a
Assay: inhibition of NECA ([…])-stimulated CREB phosphorylation in mouse CD8+ T cells, flow cytometry
Type: cell-based

T1 sequence (Q60613 whole entry): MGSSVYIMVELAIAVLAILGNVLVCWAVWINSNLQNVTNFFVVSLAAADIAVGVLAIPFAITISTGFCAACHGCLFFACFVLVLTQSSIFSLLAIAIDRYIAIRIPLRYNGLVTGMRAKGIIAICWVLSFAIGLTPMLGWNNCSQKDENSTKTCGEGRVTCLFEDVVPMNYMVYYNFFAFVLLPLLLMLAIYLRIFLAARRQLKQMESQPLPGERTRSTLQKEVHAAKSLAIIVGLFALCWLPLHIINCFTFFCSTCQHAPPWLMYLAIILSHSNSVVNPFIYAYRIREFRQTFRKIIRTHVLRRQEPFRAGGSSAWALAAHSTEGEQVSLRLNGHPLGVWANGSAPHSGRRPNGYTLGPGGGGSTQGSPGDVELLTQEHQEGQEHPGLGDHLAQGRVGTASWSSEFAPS

DZD2269 was tested. Which IC50 did it give?
The IC50 was ~3 nM.
